Reference: patent US6110962A, “11-aryl-benzo[B]naphtho[2,3-D]furans and 11-aryl-benzo[B]naphtho[2,3-D]thiophenes useful in the treatment of insulin resistance and hyperglycemia” (American Home Products Corporation, priority 1999, dated 2000)
Structures can show the parent of a compound that is named as a salt. Where two headings read alike, the source gives them in different places.

What was measured:
Human recombinant PTP1B = biological target: T1, Human recombinant PTP1B (Homo sapiens, UniProt P18031); type: biochemical; settings: read-out: IC50
T1 construct: made in house
T1 sequence (P18031 1-435): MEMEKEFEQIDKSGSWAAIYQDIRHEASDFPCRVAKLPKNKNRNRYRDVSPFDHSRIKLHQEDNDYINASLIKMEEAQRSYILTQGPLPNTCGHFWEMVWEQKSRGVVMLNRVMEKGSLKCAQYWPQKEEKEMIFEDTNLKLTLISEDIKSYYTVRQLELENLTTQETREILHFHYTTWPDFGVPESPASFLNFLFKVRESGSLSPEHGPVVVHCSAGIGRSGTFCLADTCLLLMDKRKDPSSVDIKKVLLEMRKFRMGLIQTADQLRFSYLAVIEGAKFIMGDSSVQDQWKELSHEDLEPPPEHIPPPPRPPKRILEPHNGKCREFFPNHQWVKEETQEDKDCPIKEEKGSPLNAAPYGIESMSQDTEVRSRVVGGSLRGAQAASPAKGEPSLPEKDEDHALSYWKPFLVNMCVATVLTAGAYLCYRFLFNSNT

diabetic (ob/ob) mice = assay: Blood glucose lowering activity in diabetic (ob/ob) mice; type: in vivo, mouse; settings: for change in vivo at 100 mg/kg / change in vivo at 25 mg/kg / change in vivo at 10 mg/kg / change in vivo at 50 mg/kg / change in vivo at 75 mg/kg / change in vivo at 95 mg/kg: Mus musculus, po; for change in vivo at 100 mg/kg / change in vivo at 25 mg/kg / % Change Glucose from Vehicle / change in vivo at 10 mg/kg / change in vivo at 50 mg/kg / change in vivo at 75 mg/kg / % Change Insulin from Vehicle / change in vivo at 95 mg/kg: ob/ob mice
Procedure: The blood glucose lowering activity of representative compounds of this invention were determined in an in vivo standard procedure using diabetic (ob/ob) mice. The procedures used and results obtained are briefly described below. The non-insulin dependent diabetic (NIDDM) syndrome can be typically characterizes by obesity, hyperglycemia, abnormal insulin secretion, hyperinsulinemia and insulin resistance. […] In each test procedure, mice [Male or female ob/ob (C57 B1/6J) and their lean litermates (ob+ or +/+, Jackson Laboratories) ages 2 to 5 months (10 to 65 g)] of a similar age were randomized according to body weight into 4 groups of 10 mice. The mice were housed 5 per cage and are maintained on normal rodent chow with water ad libitum. Mice received test compound daily by gavage (suspended in 0.5 ml of 0.5% methyl cellulose); dissolved in the drinking water; or admixed in the diet. […] The dose is calculated based on the fed weekly body weight and is expressed as active moiety. […] Control mice received vehicle only. On the morning of Day 4, 7 or 14 two drops of blood (approximetly 50 ul) were collected into sodium fluoride containing tubes either from the tail vein or after decapitation. For those studies in which the compound was administered daily by gavage the blood samples were collected two hours after compound administration. The plasma was isolated by centrifugation and the concentration of glucose is measured enzymatically on an Abbott V. P. Analyzer. […] Analysis of variance followed by Dunett's Comparison Test (one-tailed) are used to estimate the significant difference between the plasma glucose values from the control group and the individual compound treated groups (CMS SAS Release 5.18).

[1] = test system: rat hepatic microsomal PTPases; settings: PTPase activity, compound at 50 μM
[2] = 96 h, dose 100 mg/Kg, plasma glucose Day 4, 7 or 14, read-out: % Change Glucose from Vehicle
[3] = dose 100 mg/Kg, read-out: % Change Insulin from Vehicle
[4] = 96 h, dose 25 mg/Kg, plasma glucose Day 4, 7 or 14, read-out: % Change Glucose from Vehicle
[5] = dose 25 mg/Kg, read-out: % Change Insulin from Vehicle
[6] = 96 h, plasma glucose Day 4, 7 or 14, read-out: % Change Glucose from Vehicle
[7] = read-out: % Change Insulin from Vehicle

SMILES | IC50 (Human recombinant PTP1B) [nM] | % Change from Control [1] [%] | change in vivo at 100 mg/kg (diabetic (ob/ob) mice; [2]) [%] | other results
O=C(O)C(Cc1c[nH]c2ccccc12)Oc1c(Br)cc(-c2c3ccccc3c(Br)c3sc4ccccc4c23)cc1Br (racemic) [Example 122, (R,S)-2-[2.6-Dibromo-4-(6-bromo-benzo[b]naphtho[2,3-d]thiophen-11-yl)-phenoxy]-3-(1 H-indol-3-yl)-propionic acid] | 36 | -85.46 | -28.1 | change in vivo at 100 mg/kg (diabetic (ob/ob) mice; [3]): -37.4%
CC1(COc2ccc(CC3SC(=O)NC3=O)cc2)CCCCC1 (stereo not shown) [Ciglitazone, 5-(4-(1-methylcyclohexylmethoxy)benzyl)-2,4-dione, reference compound] |  |  | -43 | change in vivo at 100 mg/kg (diabetic (ob/ob) mice; [3]): -39%; lowering in plasma glucose (in words) (diabetic (ob/ob) mice; positive control, 100 mg/kg/day): significant lowering in plasma glucose
O=C(O)[C@@H](Cc1ccccc1)Oc1c(Br)cc(-c2c3ccccc3c(Br)c3sc4ccccc4c23)cc1Br [Example 108, (R)-2-[2,6-Dibromo-4-(6-bromo-benzo[b]naphtho[2,3-d]thiophen-11-yl)-phenoxy]-3-phenyl-propionic acid] | 61 |  | -45.8 | change in vivo at 10 mg/kg (diabetic (ob/ob) mice; [6]): -26.1%; change in vivo at 50 mg/kg (diabetic (ob/ob) mice; [6]): -34.8%; change in vivo at 75 mg/kg (diabetic (ob/ob) mice; [6]): -49.7%; change in vivo at 10 mg/kg (diabetic (ob/ob) mice; [7]): -30.3%; change in vivo at 50 mg/kg (diabetic (ob/ob) mice; [7]): -84.8%; change in vivo at 75 mg/kg (diabetic (ob/ob) mice; [7]): -89.6%; change in vivo at 100 mg/kg (diabetic (ob/ob) mice; [3]): -72.6%; % Change Insulin from Vehicle (diabetic (ob/ob) mice; dose 25 mg/Kg): -71.03%; % Change Glucose from Vehicle (diabetic (ob/ob) mice; dose 25 mg/Kg, plasma glucose Day 4, 7 or 14, 25 mg/kg): -25.66%; % Change from Control ([1]; 50 µM): -72.94%
O=C(O)[C@@H](Cc1ccccc1)Oc1c(Br)cc(-c2c3ccccc3c(Br)c3sc4ccccc4c23)cc1Br [Example 109, (R)-2-[2,6-Dibromo-4-(6-bromo-benzo[b]naphtho[2,3-d]thiophen-11-yl)-phenoxy]-3-phenyl-propionic acid, sodium salt] | 71 |  |  | % Change Glucose from Vehicle (diabetic (ob/ob) mice; dose 25 mg/Kg, plasma glucose Day 4, 7 or 14, sodium salt, 25 mg/kg): -26.31%; % Change Insulin from Vehicle (diabetic (ob/ob) mice; dose 25 mg/Kg, sodium salt): -71.64%; % Change from Control ([1]; sodium salt, 50 µM): -66.67%
O=C(O)[C@@H](CCc1ccccc1)Oc1c(Br)cc(-c2c3ccccc3c(Br)c3sc4ccccc4c23)cc1Br [Example 113] | 45 | -101.01 |  | change in vivo at 25 mg/kg (diabetic (ob/ob) mice; [4]): -0.5%; change in vivo at 25 mg/kg (diabetic (ob/ob) mice; [5]): -55.8%
N#Cc1c2ccccc2c(-c2cc(Br)c(O[C@@H](Cc3ccccc3)C(=O)O)c(Br)c2)c2c1sc1ccccc12 [Example 115, (S)-2-[2,6-Dibromo-4-(6-cyano-benzo[b]naphtho[2,3-d]thiophen-11-yl)-phenoxy]-3-phenyl-propionic acid] | 279 | -55.43 | -33.9 | change in vivo at 100 mg/kg (diabetic (ob/ob) mice; [3]): 52%
O=C(O)[C@@H](Cc1ccccc1)Oc1c(Br)cc(-c2c3ccccc3c(C(F)(F)F)c3sc4ccccc4c23)cc1Br [Example 125, (R)-2-[2,6-Dibromo-4-(6-trifluoromethyl-benzo[b]naphtho[2,3-d]thiophen-11-yl)-phenoxy]-3-phenyl-propionic acid] |  | -73.96 |  | change in vivo at 95 mg/kg (diabetic (ob/ob) mice; [6]): -27.6%; change in vivo at 95 mg/kg (diabetic (ob/ob) mice; [7]): -89.7%
O=C(O)[C@@H](Cc1ccccc1)Oc1c(I)cc(-c2c3ccccc3cc3sc4ccccc4c23)cc1I [Example 131] |  | -66.21 |  | change in vivo at 25 mg/kg (diabetic (ob/ob) mice; [4]): -3.63%; change in vivo at 25 mg/kg (diabetic (ob/ob) mice; [5]): -67.5%
O=C(O)[C@@H](Cc1ccccc1)Oc1c(Br)cc(-c2c3ccccc3c(OCc3ccccc3)c3sc4ccccc4c23)cc1Br [Example 184, (R)-2-[4-(6-Benzyloxy-benzo[b]naphtho[2,3-d]thiophen-11-yl]-2-6-dibromo-phenoxy}-3-phenyl-propionic acid] | 45 | -46.44 |  | 
O=C(O)COc1c(-c2ccccc2)cc(-c2c3ccccc3cc3sc4ccccc4c23)cc1-c1ccccc1 [Example 191] |  |  |  | change in vivo at 10 mg/kg (diabetic (ob/ob) mice; [6]): -22.8%; change in vivo at 25 mg/kg (diabetic (ob/ob) mice; [4]): -36.5%; change in vivo at 25 mg/kg (diabetic (ob/ob) mice; [5]): -64.3%
COc1c(Br)cc(-c2c3ccccc3c(Br)c3sc4ccccc4c23)cc1O[C@H](Cc1ccccc1)C(=O)O [Example 196, (R)-2-[3-Bromo-5-(6-bromo-benzo[b]naphtho[2,3-d]thiophen-11-yl)-2-methoxy-phenoxy]-3-phenyl-propionic acid] | 174 | -80.08 |  | 

More lines, main results first:

IC50 (Human recombinant PTP1B) [nM] | % Change from Control [1] [%] | SMILES | change in vivo at 100 mg/kg (diabetic (ob/ob) mice; [2]) [%] | other results
74 | -29.03 | Oc1cc(-c2c3ccccc3c(Br)c3sc4ccccc4c23)cc(Br)c1O [Example 70, 3-Bromo-5-(6-bromo-benzo[b]naphtho[2,3-d]thiophen-11-yl)-benzene-1,2-diol] |  | change in vivo at 25 mg/kg (diabetic (ob/ob) mice; [4]): -28.6%; change in vivo at 25 mg/kg (diabetic (ob/ob) mice; [5]): 45.7%
386 | -82.58 | O=C(O)COc1c(Br)cc(-c2c3ccccc3c(Br)c3sc4ccccc4c23)cc1Br [Example 79, [2,6-Dibromo-4-(6-bromo-benzo[b]naphtho[2,3-d]thiophen-11-yl)-phenoxy]-acetic acid] | -22.6 | % Change Glucose from Vehicle (diabetic (ob/ob) mice; dose 100 mg/Kg, plasma glucose Day 4, 7 or 14, 100 mg/kg): -22.60%
1680 | -63.18 | O=C(O)COc1ccc(-c2c3ccccc3c(Br)c3sc4ccccc4c23)cc1 [Example 87] | -15.8 | change in vivo at 100 mg/kg (diabetic (ob/ob) mice; [3]): -88%
126 | -61.04 | CC(C)c1cc(-c2c3ccccc3c(Br)c3sc4ccccc4c23)cc(C(C)C)c1OCC(=O)O [Example 89, [4-(6-Bromo-benzo[b]naphtho[2,3-d]thiophen-11-yl)-2,6-diisopropyl-phenoxy)-acetic acid] |  | change in vivo at 10 mg/kg (diabetic (ob/ob) mice; [6]): -24.9%
62 | -76.45 | O=C(O)[C@H](Cc1ccccc1)Oc1c(Br)cc(-c2c3ccccc3c(Br)c3sc4ccccc4c23)cc1Br [Example 111, (S)-2-[2,6-Dibromo-4-(6-bromo-benzo[b]naphtho[2,3-d]thiophen-11-yl)-phenoxy]-3-phenyl-propionic acid] | -39.4 | change in vivo at 100 mg/kg (diabetic (ob/ob) mice; [3]): -17.9%
203 | -66.27 | O=C(O)CCOc1c(Br)cc(-c2c3ccccc3c(Br)c3sc4ccccc4c23)cc1Br [Example 179] |  | 
384 | -50.64 | C[C@H](CC(=O)O)Oc1c(Br)cc(-c2c3ccccc3c(Br)c3sc4ccccc4c23)cc1Br [Example 180] |  | 
889 | -29.34 | COc1c(O)cc(-c2c3ccccc3c(Br)c3sc4ccccc4c23)cc1Br [Example 195, 3-Bromo-5-(6-bromo-benzo[b]naphtho[2,3-d]thiophen-11-yl)-2-methoxy-phenol] |  | 
1170 | -50.62 | Oc1c(F)ccc(-c2c3ccccc3c(Br)c3sc4ccccc4c23)c1F [Example 200, 3-(6-Bromo-benzo[b]naphtho[2,3-d]thiophen-11-yl)-2,6 difluoro-phenol] |  | 
1060 | -51.55 | Oc1c(Br)cc(-c2c3ccccc3c(Br)c3oc4ccccc4c23)cc1Br [Example 210, 2,6-Dibromo-4-(6-bromo-benzo[b]naphtho[2,3-d]furan-11ly)-phenol] |  | 
